Test results taken from patent US20210330611A1, “THERAPY FOR NEUROLOGICAL DISEASES/DISORDERS” (priority 2020, published 2021).
Where a name gives a salt, the structure may show the parent alone. Read-outs that look alike come from different tables or passages of the source.

Assays:
[1] = tested on: fibrin-induced microglia activation; assay: Image-based assay of fibrin-induced microglia activation (HTS and dose response); format: cell-based, rat; details: primary microglia HTS, fibrin stimulation; for inhibition at 10 µM: Rattus norvegicus, Microglia, read-out: Fibrin % inhibition
[2] = tested on: LPS-induced microglia activation; assay: Image-based assay of LPS-induced microglia activation (HTS and dose response); format: cell-based, rat; details: for inhibition at 10 µM: Rattus norvegicus, Microglia, read-out: LPS % inhibition
[3] = tested on: fibrin- and LPS-induced microglia activation; assay: cells; format: cell-based, rat
primary rat microglia [4] = tested on: primary rat microglia
primary rat microglia [5] = assay: Cell toxicity (dead cells, size <150 μm2) in coated fibrin (cFib) assay; details: primary microglia HTS;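 further: share of dead cells sized under 150 µm2 at 10 µM in fibrin-stimulated microglia HTS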
[6] = cell size >800 μm2 as marker of activation
[7] = classification by fibrin and LPS inhibition in HTS
[8] = fibrin stimulation, cell size <150 μm2 as marker of toxicity
[9] = primary microglia HTS, LPS stimulation, compounds at 10 μM
[10] = quadrant by fibrin and LPS inhibition, HTS at 10 μM
[11] = fibrin assay, dead cells (size <150 μm2)
[12] = classification by fibrin and LPS inhibition, HTS at 10 μM
[13] = fibrin assay, dead cells (size <150 μm2), compounds at 10 μM

Structure (SMILES)	LPS % cell toxicity (primary rat microglia [4]; rat) [%]	inhibition at 10 µM ([1]; compounds at 10 μM) [%]	inhibition at 10 µM [2, 9] [%]	Quadrant (FIG. 5b) [3, 10]	Fibrin % cell toxicity (primary rat microglia [5]; [11]) [%]	Quadrant (FIG. 5b) [3, 12]	Fibrin % cell toxicity (primary rat microglia [5]; [13]) [%]	further results
CC1=C(C)C(=O)C(C(CCCCCC(=O)O)c2ccccc2)=C(C)C1=O (centres unmarked) [Seratrodast]	0							inhibition at 10 µM [1, 6]: 20%; inhibition at 10 µM ([2]; 48 h): 14%; Quadrant (FIG. 5b) [3, 7]: Q4; Fibrin % cell toxicity (primary rat microglia [5]; [8]): 1%
O=C1c2c(O)cccc2Cc2cccc(O)c21 [Anthralin]	1	-10	13	Q4	1			
NC(=O)C[S@@+]([O-])C(c1ccccc1)c1ccccc1 [Armodafinil]	1	-10	19	Q4	0			
CCOC(=O)C1=C(C)NC(C)=C(C(=O)OC)C1c1cccc(Cl)c1Cl (centres unmarked) [Felodipine]	0	2	14			Q4	1	
O=C1c2c(O)cccc2C([C@@H]2O[C@H](CO)[C@@H](O)[C@H](O)[C@H]2O)c2cc(CO)cc(O)c21 (some centres unmarked) [Aloin]	0	-35	14	Q4	1			
O=C1c2cccc(O)c2C(=O)c2c(O)cccc21 [Dantron, Danthron]						Q4	0	Fibrin % inhibition ([1]; compounds at 10 μM): −9%; LPS % inhibition [2, 9]: 13%; LPS % cell toxicity (primary rat microglia [4]): 0%
CCCc1cc(C(N)=S)ccn1 [Protionamide, Ektebin]								Fibrin % inhibition [1, 6]: −18%; LPS % inhibition [2]: 12%; Quadrant (FIG. 5b) [3, 7]: Q4; LPS % cell toxicity (primary rat microglia [4]): 0%; Fibrin % cell toxicity (primary rat microglia [5]; [8]): 1%
Nc1c(Br)cc(Br)cc1CN[C@H]1CC[C@H](O)CC1 [Ambroxol Hydrochloride]	0	-19	9	Q4	0			
CCCCC[C@H](O)/C=C/[C@@H]1[C@@H](C/C=C\CCCC(=O)O)[C@@H](O)C[C@H]1O [Dinoprost Tromethamine]	0	36	15			Q4	1	
COc1cc2nc(N3CCN(C(=O)C4COc5ccccc5O4)CC3)nc(N)c2cc1OC (centres unmarked) [Doxazosin]	0	-26	6			Q4	0	
CC(=O)Oc1ccccc1C(=O)O [Acetylsalicylic acid]	0	-21	17	Q4	1			
Oc1c(I)cc(I)c2cccnc12 [Diiodohydroxyquinoline]	0	-6	22			Q4	1	
NCC[C@H](O)C(=O)N[C@@H]1C[C@H](N)[C@@H](O[C@H]2O[C@H](CN)[C@@H](O)[C@H](O)[C@H]2O)[C@H](O)[C@H]1O[C@H]1O[C@H](CO)[C@@H](O)[C@H](N)[C@H]1O.O=S(=O)(O)O.O=S(=O)(O)O [Amikacin Sulfate]				Q4	1			Fibrin % inhibition ([1]; compounds at 10 μM): 3%; LPS % inhibition [2, 9]: 1%; LPS % cell toxicity (primary rat microglia [4]): 0%
CCC(=O)O[C@](Cc1ccccc1)(c1ccccc1)[C@H](C)CN(C)C [Dextropropoxyphene]	0	-25	15			Q4	1	
C[C@H](N[C@@H](CCc1ccccc1)C(=O)O)C(=O)N1Cc2ccccc2C[C@H]1C(=O)O [Quinaprilat]	0							inhibition at 10 µM [1, 6]: -5%; inhibition at 10 µM ([2]; 48 h): 5%; Quadrant (FIG. 5b) [3, 7]: Q4; Fibrin % cell toxicity (primary rat microglia [5]; [8]): 1%
CCCCCCCCCCCCCCOS(=O)(=O)[O-].[Na+] [Sodium Tetradecyl Sulfate]	0							inhibition at 10 µM [1, 6]: -5%; inhibition at 10 µM ([2]; 48 h): 13%; Quadrant (FIG. 5b) [3, 7]: Q4; Fibrin % cell toxicity (primary rat microglia [5]; [8]): 1%
CCCCNc1ccc(C(=O)OCCOCCOCCOCCOCCOCCOCCOCCOCCOC)cc1 [Benzonatate]	0	0	12	Q4	1			

Structure (SMILES)	LPS % cell toxicity (primary rat microglia [4]; rat) [%]	inhibition at 10 µM ([1]; compounds at 10 μM) [%]	inhibition at 10 µM [2, 9] [%]	Quadrant (FIG. 5b) [3, 10]	Fibrin % cell toxicity (primary rat microglia [5]; [11]) [%]	Quadrant (FIG. 5b) [3, 12]	Fibrin % cell toxicity (primary rat microglia [5]; [13]) [%]	further results
NC(=O)c1ccc([N+](=O)[O-])cc1Cl [Aklomide]	0	-18	-2	Q4	0			
CC1(C)C(C=C(Cl)Cl)C1C(=O)OCc1cccc(Oc2ccccc2)c1 (centres unmarked) [Permethrin]	0							inhibition at 10 µM [1, 6]: -21%; inhibition at 10 µM ([2]; 48 h): 11%; Quadrant (FIG. 5b) [3, 7]: Q4; Fibrin % cell toxicity (primary rat microglia [5]; [8]): 0%
CCOc1ccc2nc3cc(N)ccc3c(N)c2c1 [Ethacridine Lactate]	0	-64	-8			Q4	1	
CCCCOc1ccc(OCCCN2CCOCC2)cc1 [Pramocaine]	0							inhibition at 10 µM [1, 6]: 14%; inhibition at 10 µM ([2]; 48 h): 13%; Quadrant (FIG. 5b) [3, 7]: Q4; Fibrin % cell toxicity (primary rat microglia [5]; [8]): 0%
CCC(=O)OCC(=O)[C@@]1(OC(=O)CC)[C@@H](C)C[C@H]2[C@@H]3CCC4=CC(=O)C=C[C@]4(C)[C@@]3(Cl)[C@@H](O)C[C@@]21C [Beclomethasone Dipropionate]	1	7	28	Q4	1			
CN(C)CC[C@@H](c1ccc(Br)cc1)c1ccccn1						Q4	0	Fibrin % inhibition ([1]; compounds at 10 μM): 0%; LPS % inhibition [2, 9]: 10%; LPS % cell toxicity (primary rat microglia [4]): 0%
NCC(CC(=O)O)c1ccc(Cl)cc1 (racemic) [(±)-baclofen, Baclofen]				Q4	0			Fibrin % inhibition ([1]; compounds at 10 μM): −8%; LPS % inhibition [2, 9]: 9%; LPS % cell toxicity (primary rat microglia [4]): 0%
CCOC(=O)COc1ccc2c(=O)cc(-c3ccccc3)oc2c1 [Efloxate]	0	-8	-1			Q4	1	
CN(C)CCOC(C)(c1ccccc1)c1ccccn1 (centres unmarked) [Doxylamine]	0	-45	17			Q4	1	
CCC1(CC)C(=O)NC(=O)NC1=O [Barbital]	0	-5	11	Q4	0			
C[C@@H](O[C@H]1OCCN(Cc2n[nH]c(=O)[nH]2)[C@H]1c1ccc(F)cc1)c1cc(C(F)(F)F)cc(C(F)(F)F)c1 [Aprepitant]	0	20	1	Q4	1			
CC(C)(CO)[C@@H](O)C(=O)NCCCO [Dexpanthenol]	0	-1	11			Q4	0	
COc1ccc2nc3cc(Cl)ccc3c(Nc3cc(CN4CCCC4)c(O)c(CN4CCCC4)c3)c2n1.O=P(O)(O)O.O=P(O)(O)O.O=P(O)(O)O.O=P(O)(O)O [Pyronaridine Tetraphosphate]								Fibrin % inhibition [1, 6]: 16%; LPS % inhibition [2]: 9%; Quadrant (FIG. 5b) [3, 7]: Q4; LPS % cell toxicity (primary rat microglia [4]): 0%; Fibrin % cell toxicity (primary rat microglia [5]; [8]): 1%
C1CCc2nnnn2CC1 [Pentetrazole, Pentylenetetrazol]								Fibrin % inhibition [1, 6]: −12%; LPS % inhibition [2]: 18%; Quadrant (FIG. 5b) [3, 7]: Q4; LPS % cell toxicity (primary rat microglia [4]): 1%; Fibrin % cell toxicity (primary rat microglia [5]; [8]): 1%
Cc1cc(-c2ccc(/N=N/c3ccc4c(S(=O)(=O)O)cc(S(=O)(=O)O)c(N)c4c3O)c(C)c2)ccc1/N=N/c1ccc2c(S(=O)(=O)O)cc(S(=O)(=O)O)c(N)c2c1O [Evans Blue]	0	-37	7			Q4	0	
COc1ccc(C(=O)CC(=O)c2ccc(C(C)(C)C)cc2)cc1 [Avobenzone]	0	22	20	Q4	1			
C=CCSCC1Nc2cc(Cl)c(S(N)(=O)=O)cc2S(=O)(=O)N1 (centres unmarked) [Althiazide]	1	-11	12	Q4	1			
